Results as given in article PMC3463587, “A Series of Beta-Carboline Derivatives Inhibit the Kinase Activity of PLKs” (PLoS ONE, 2012).

Key:
HepG2 cells = assay: MTT cell proliferation assay, HepG2; format: cell-based; details: Homo sapiens, 48 hr
Description: (§1) BI2536 was purchased from Selleck (Selleck, USA).

MG63 cells = assay: MTT cell proliferation assay, MG63; format: cell-based; details: Homo sapiens, MG-63, 48 hr
Description: as §1

HeLa cells [1] = assay: MTT cell proliferation assay, HeLa; format: cell-based; details: Homo sapiens, 48 hr
Description: as §1

HeLa cells [2] = assay: FITC-Annexin V/PI apoptosis assay, HeLa; format: cell-based, human
Description: Staining with Annexin V–FITC and propidium iodide (PI) is commonly used to distinguish apoptotic, necrotic, and dead cells. PI is impermeant to live cells and apoptotic cells at early stages, but it stains dead cells and apoptotic cells at late stages through its binding to the nucleic acids. Apoptotic cells in early or late stages are stained positively for Annexin V-FITC that binds to phosphotidylserine. We used FACS analysis to determine the proportion of HeLa cells positive for Annexin V-FITC (FITC), PI, or both. The HeLa cells with PI^−/PI^+ FITC^+ were counted as apoptotic cells (Figure 5). […] However, 16.19% (3.96+12.23) of HeLa cells became FITC positive after treatment with 1.05 µM DH281 for 48 hr. The treatment with 5.25 µM DH281 induced apoptosis among 89.6% (89.51+0.09) of HeLa cells (Table 5). […] In contrast to HeLa cells, the induction of apoptosis by DH281 was much less efficient in non-cancer MRC5 cells (Table 5). Therefore, we conclude that the treatment with compounds DH281, DH285 and DH287 induces substantial apoptosis in HeLa cells, but non-cancer MRC5 cells are much less sensitive to the treatment. The distinct apoptotic responses of HeLa and MRC5 cells to beta-carboline compounds could explain the selectivity of PLK1 inhibitors toward cancer cells.
HeLa cells were either treated with 0, 0.21, 1.05 and 5.25 µM of DH281, DH285 and DH287 for 48 hr, or treated with 1.21 µM compounds for 24, 48 and 72 hr, while MRC5 cells were exposed to compounds at 0, 0.21, 1.05, and 5.25 µM for 48 hr. The cultured cells were harvested, washed three times with PBS, and resuspended in 500 µl binding buffer (10 mM Hepes/sodium hydroxide (pH7.4), 140 mM sodium chloride, and 2.5 mM CaCl2). Then 5 µl FITC-labeled Annexin V (Zhongshan JinQiao Biotechnology Ltd., Beijing) was added and the cells were incubated in the dark for 10 min. We added 5 µl of propidium iodide (PI) (10 µg/ml in binding buffer) to each sample before flow cytometry analysis.

[3] = tested on: Wee1 protein levels in HeLa cells; assay: Wee1 protein level (Western blotting); format: cell-based, human; details: 1.21 µM, 24 hr, compared to control cells
Method: (§2) As the inhibitory kinase for cyclin-dependent kinase (CDK), Wee1 is one of the substrates of PLK1 and this phosphorylation stimulates Wee1 degradation. We expect that the inhibition of PLK1 impairs the phosphorylation of Wee1, thereby resulting in elevated Wee1 protein levels. To test this possibility, we examined the protein levels of Wee1 in HeLa cells after treatment with 1.21 µM beta-carboline compounds for 24 hr. […] PLK1 also phosphorylates cyclin B1 and this phosphorylation promotes the nuclear localization of cyclin B1 [36]. After treatment with these beta-carboline compounds, a slight increase of cyclin B1 protein was observed (Figure 6B), and this increase could be a consequence of accumulation of cells in G2/M phase. However, the change of cyclin B1 levels is much less significant compared to the increase of Wee1 levels after treatment with these compounds.
(§3) HeLa cells were incubated with or without 1.21 µM DH281, DH285 and DH287 for 24 hr. The cells were washed twice with cold 1×PBS and lysed in RAPI buffer (Applygen technologies Inc.) for 30 min and centrifuged at 14,000 rpm for 20 min at 4°C. We separated 15 µl of total protein (1 µg/ µl) with 12% SDS-PAGE gels and transferred the proteins to PVDF membrane. […] The protein bands were detected using ECL System (Piscataway, New Jersey, USA). […]

[4] = tested on: four cancer cell lines (HepG2, MG63, HeLa and PC3); assay: Growth inhibition of four cancer cell lines; format: cell-based, Human
Description: In order to find more efficient antitumor small molecules targeting PLK1, we synthesized additional 18 beta-carboline compounds and the structures of these compounds are shown in Figure 1. The growth inhibition of four cancer cell lines (HepG2, MG63, HeLa and PC3) by these compounds was examined. […] We selected DH281, DH285 and DH287 for further studies.

[5] = tested on: cyclin B1 protein in HeLa cells; assay: Cyclin B1 protein level (Western blotting, FACS); format: cell-based, human; details: 1.21 µM, 24 hr
Method: as §2, §3

Cc1c2c(cc[n+]1Cc1ccccc1)c1ccc(OCc3ccc(F)cc3)cc1n2CCCc1ccccc1 [DH281]
IC50 (HepG2 cells): 2240 ± 40 nM
IC50 (MG63 cells): 1600 ± 150 nM
IC50 (HeLa cells [1]): 510 ± 80 nM
PI+ FITC+ (late apoptotic cells) (HeLa cells [2]; 0.21 µM, 48 hr): 3.22%
PI+ FITC− (dead cells) (HeLa cells [2]; 0.21 µM, 48 hr): 3.24%
PI− FITC+ (early apoptotic cells) (HeLa cells [2]; 0.21 µM, 48 hr): 0.97%
PI− FITC− (live cells) (HeLa cells [2]; 0.21 µM, 48 hr): 92.57%
FITC positive (apoptotic) cells, early + late (HeLa cells [2]; 1.05 µM, 48 hr): 16.19%
PI+ FITC+ (late apoptotic cells) (HeLa cells [2]; 1.05 µM, 48 hr): 3.96%
PI+ FITC− (dead cells) (HeLa cells [2]; 1.05 µM, 48 hr): 10.22%
PI− FITC+ (early apoptotic cells) (HeLa cells [2]; 1.05 µM, 48 hr): 12.23%
PI− FITC− (live cells) (HeLa cells [2]; 1.05 µM, 48 hr): 73.59%
PI+ FITC+ (late apoptotic cells) (HeLa cells [2]; 1.21 µM, 24 hr): 10.65%
PI+ FITC− (dead cells) (HeLa cells [2]; 1.21 µM, 24 hr): 2.52%
PI− FITC+ (early apoptotic cells) (HeLa cells [2]; 1.21 µM, 24 hr): 1.42%
PI− FITC− (live cells) (HeLa cells [2]; 1.21 µM, 24 hr): 85.41%
PI+ FITC+ (late apoptotic cells) (HeLa cells [2]; 1.21 µM, 48 hr): 8.91%
PI+ FITC− (dead cells) (HeLa cells [2]; 1.21 µM, 48 hr): 3.31%
PI− FITC+ (early apoptotic cells) (HeLa cells [2]; 1.21 µM, 48 hr): 16.20%
PI− FITC− (live cells) (HeLa cells [2]; 1.21 µM, 48 hr): 71.58%
PI+ FITC+ (late apoptotic cells) (HeLa cells [2]; 1.21 µM, 72 hr): 5.97%
PI+ FITC− (dead cells) (HeLa cells [2]; 1.21 µM, 72 hr): 1.41%
PI− FITC+ (early apoptotic cells) (HeLa cells [2]; 1.21 µM, 72 hr): 39.54%
PI− FITC− (live cells) (HeLa cells [2]; 1.21 µM, 72 hr): 53.08%
FITC positive (apoptotic) cells, early + late (HeLa cells [2]; 5.25 µM, 48 hr): 89.6%
PI+ FITC+ (late apoptotic cells) (HeLa cells [2]; 5.25 µM, 48 hr): 0.09%
PI+ FITC− (dead cells) (HeLa cells [2]; 5.25 µM, 48 hr): 0.37%
PI− FITC+ (early apoptotic cells) (HeLa cells [2]; 5.25 µM, 48 hr): 89.51%
PI− FITC− (live cells) (HeLa cells [2]; 5.25 µM, 48 hr): 10.03%
Wee1 protein level [3]: high levels of Wee1 protein
antitumor activity (growth inhibition) [4]: very strong growth inhibition
cyclin B1 protein level [5]: did not show a significant increase of cyclin B1 protein

Cc1c2c(cc[n+]1Cc1ccccc1)c1ccc(OCc3ccccc3)cc1n2Cc1ccccc1 [DH287]
IC50 (HepG2 cells): 10700 ± 310 nM
IC50 (MG63 cells): 1790 ± 290 nM
IC50 (HeLa cells [1]): 1820 ± 150 nM
PI+ FITC+ (late apoptotic cells) (HeLa cells [2]; 0.21 µM, 48 hr): 2.16%
PI+ FITC− (dead cells) (HeLa cells [2]; 0.21 µM, 48 hr): 3.48%
PI− FITC+ (early apoptotic cells) (HeLa cells [2]; 0.21 µM, 48 hr): 1.12%
PI− FITC− (live cells) (HeLa cells [2]; 0.21 µM, 48 hr): 93.25%
PI+ FITC+ (late apoptotic cells) (HeLa cells [2]; 1.05 µM, 48 hr): 5.20%
PI+ FITC− (dead cells) (HeLa cells [2]; 1.05 µM, 48 hr): 9.81%
PI− FITC+ (early apoptotic cells) (HeLa cells [2]; 1.05 µM, 48 hr): 7.20%
PI− FITC− (live cells) (HeLa cells [2]; 1.05 µM, 48 hr): 77.8%
PI+ FITC+ (late apoptotic cells) (HeLa cells [2]; 1.21 µM, 24 hr): 10.88%
PI+ FITC− (dead cells) (HeLa cells [2]; 1.21 µM, 24 hr): 3.56%
PI− FITC+ (early apoptotic cells) (HeLa cells [2]; 1.21 µM, 24 hr): 10.39%
PI− FITC− (live cells) (HeLa cells [2]; 1.21 µM, 24 hr): 75.17%
PI+ FITC+ (late apoptotic cells) (HeLa cells [2]; 1.21 µM, 48 hr): 8.31%
PI+ FITC− (dead cells) (HeLa cells [2]; 1.21 µM, 48 hr): 7.05%
PI− FITC+ (early apoptotic cells) (HeLa cells [2]; 1.21 µM, 48 hr): 25.70%
PI− FITC− (live cells) (HeLa cells [2]; 1.21 µM, 48 hr): 58.94%
PI+ FITC+ (late apoptotic cells) (HeLa cells [2]; 1.21 µM, 72 hr): 1.19%
PI− FITC+ (early apoptotic cells) (HeLa cells [2]; 1.21 µM, 72 hr): 55.98%
PI− FITC− (live cells) (HeLa cells [2]; 1.21 µM, 72 hr): 38.27%
PI+ FITC+ (late apoptotic cells) (HeLa cells [2]; 5.25 µM, 48 hr): 5.58%
PI+ FITC− (dead cells) (HeLa cells [2]; 5.25 µM, 48 hr): 8.71%
PI− FITC+ (early apoptotic cells) (HeLa cells [2]; 5.25 µM, 48 hr): 65.36%
PI− FITC− (live cells) (HeLa cells [2]; 5.25 µM, 48 hr): 20.35%
Wee1 protein level [3]: high levels of Wee1 protein
antitumor activity (growth inhibition) [4]: very strong growth inhibition
cyclin B1 protein level [5]: did not show a significant increase of cyclin B1 protein
